Data on 22 compounds can be found in patent US11135209B2, “Compositions and methods for inhibiting protein kinases” (UNIVERSITY OF HOUSTON SYSTEM, priority 2017, dated 2021).

In general, IC50 refers to the point on the concentration scale where inhibition reaches its midpoint. As a reminder, the inhibition is the percentage by which the read-out fell short of the control.

The target of assay [1] is Recombinant RIPK2 protein (Homo sapiens, UniProt O43353). In words: Receptor Interacting Protein Kinase 2 (RIPK2) enzyme assay (ADP-Glo). It counts as biochemical. As to conditions: for inhibition at 0.5 µM: Conc. 500 nM. As to the method:
Receptor Interacting Protein Kinase 2 (RIPK2) Enzyme Assay
Recombinant RIPK2 protein (20 ng per reaction) is diluted in the reaction buffer consisting of 40 mM Tris (pH 7.5); 20 mM MgCl2; 0.1 mg/ml BSA; 50 μM DTT. Diluted protein is added to low volume white 384 well plates (2 μL/well). Inhibitors are diluted in reaction buffer (final 25% DMSO), 1 μL is added to each well and incubated 5 min at room temperature. Reactions are initiated by the addition of 2 μL of 100 μM ATP and 1 mg/ml RS repeat peptide (SignalChem) in the reaction buffer. Plates are sealed with plastic coverslips and incubated at room temperature for 2 h. Reactions are stopped by the addition of 5 μL of ADP-Glo reagent (Promega) and ADP generation reaction is performed for 40 min at room temperature. Luminescence signal is generated by the addition of 10 μL of Kinase detection reagent (Promega) for 30 min at room temperature Luminescence signals are determined using appropriate luminescence plate-reader (typical integration time 0.3-1 sec). To calculate percent inhibition, average background signal is subtracted from test well and maximal signal wells. Inhibition, %=(1−(test signal/maximal signal))*100. The percent inhibition at a specified concentration is determined or IC50 values are calculated based on a dose range of inhibitor concentrations using non-linear regression in GraphPad Prism software.
Background: In ADP-Glo the light output rises with the ADP produced.

Assay [2] has as its system NOD2 cellular signaling in HEK-Blue cells expressing human NOD2. Put plainly: NOD2 cell signaling assay (HEK-Blue, NFkB-SEAP reporter, L18-MDP stimulated). The format is cell-based. As to conditions: read-out: IC50 (nM) HEKBlue RIPK2. The protocol:
NOD2 Cell Signaling Assay.
HEK-Blue cells expressing human NOD2 and NFkB-SAEP reporter (Invivogen) are seeded into 96 well clear plates at 7.5×10^3 cells per well in 100 μL of DMEM media supplemented with 10% FBS and 1% antibiotic-antimycotic mix. Cells are allowed to attach for 48 h in 5% CO2 tissue culture incubator at 37° C. On the morning of the experiment, media in the wells is replaced with 100 pt of HEK-Blue detection media (Invivogen). Cells are treated with the inhibitors, diluted in DMSO (0.5 μL per well) for 15 min in 5% CO2 tissue culture incubator at 37° C. After that, cells are stimulated by the addition of 1 ng/well L18-MDP (Invivogen). Cells are incubated in 5% CO2 tissue culture incubator at 37° C. for 8 h and absorbance, corresponding to the SEAP in the media, is determined in Wallac3V plate reader (Perkin Elmer). Inhibition, %=(1−((sample signal-unstimulated and DMSO treated cells)/(L18-MDP stimulated and DMSO treated cells−unstimulated and DMSO treated cells)))*100. IC50 values are calculated based on a dose range of inhibitor concentrations using non-linear regression in GraphPad Prism software.

Assay [3] has as its target T1, human ALK2 (Homo sapiens, UniProt Q04771).
T1 sequence (Q04771 21-509): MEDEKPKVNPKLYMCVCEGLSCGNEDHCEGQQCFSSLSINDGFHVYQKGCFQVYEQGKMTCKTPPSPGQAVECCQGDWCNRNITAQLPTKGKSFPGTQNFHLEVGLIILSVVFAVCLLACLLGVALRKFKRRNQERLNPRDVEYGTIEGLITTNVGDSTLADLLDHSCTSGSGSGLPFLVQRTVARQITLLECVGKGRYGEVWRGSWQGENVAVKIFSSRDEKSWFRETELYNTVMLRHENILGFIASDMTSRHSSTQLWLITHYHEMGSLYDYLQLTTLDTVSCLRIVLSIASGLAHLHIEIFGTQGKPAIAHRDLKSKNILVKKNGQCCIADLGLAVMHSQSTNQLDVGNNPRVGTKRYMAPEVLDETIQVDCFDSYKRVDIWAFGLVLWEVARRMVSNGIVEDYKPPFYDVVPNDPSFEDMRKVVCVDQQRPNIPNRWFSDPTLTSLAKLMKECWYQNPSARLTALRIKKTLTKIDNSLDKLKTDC
In words: Activin-Like Kinase 2 (ALK2) enzyme assay. The format is biochemical. As to the method:
Activin-Like Kinase 2 (ALK2) Enzyme Assay
Enzyme inhibitory activity was evaluated in a standard kinase enzyme assay by incubating human ALK2 with the protein substrate casein (1 mg/mL) and γ-^33ATP (10 μM) in the presence of various concentrations of test compounds (10 nM-100 μM). After 30 min the amount of ^33P-casein was determined.

Sequence of Recombinant RIPK2 protein (O43353 whole entry, species assumed): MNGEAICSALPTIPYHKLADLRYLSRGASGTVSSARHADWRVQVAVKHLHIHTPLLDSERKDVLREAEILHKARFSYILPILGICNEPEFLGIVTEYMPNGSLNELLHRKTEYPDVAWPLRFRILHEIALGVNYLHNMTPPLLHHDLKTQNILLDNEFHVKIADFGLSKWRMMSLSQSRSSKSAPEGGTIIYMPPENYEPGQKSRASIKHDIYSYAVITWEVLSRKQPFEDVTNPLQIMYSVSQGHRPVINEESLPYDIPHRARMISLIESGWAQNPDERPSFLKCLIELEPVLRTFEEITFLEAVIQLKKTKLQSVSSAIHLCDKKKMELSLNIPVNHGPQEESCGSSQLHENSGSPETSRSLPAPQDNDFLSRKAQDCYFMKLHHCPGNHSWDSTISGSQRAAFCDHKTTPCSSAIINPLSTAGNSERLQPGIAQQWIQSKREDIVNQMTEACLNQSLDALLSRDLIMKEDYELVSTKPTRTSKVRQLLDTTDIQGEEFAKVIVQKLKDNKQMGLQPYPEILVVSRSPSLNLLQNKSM

Turning to `COc1cc(-c2cc(-c3ccc(N4CCNCC4)cc3)cnc2N)cc(NS(=O)(=O)Cc2ccccc2)c1C` [CSLP31, N-(5-(2-Amino-5-(4-(piperazin-1-yl)phenyl)pyridin-3-yl)-3-methoxy-2-methylphenyl)-1-phenylmethanesulfonamide], the IC50 in assay [1] was greater than 1000 nM; in assay [2] it was greater than 100 nM; in assay [3], greater than 10 nM.
On to `CCCS(=O)(=O)Nc1cc(-c2cc(-c3ccc(N4CCNCC4)cc3)cnc2N)cc2c1OCCO2` [CSLP52, N-(7-(2-Amino-5-(4-(piperazin-1-yl)phenyl)pyridin-3-yl)-2,3-dihydrobenzo[b][1,4]dioxin-5-yl)propane-1-sulfonamide], for which the half-inhibitory concentration (IC50) was greater than 100 nM in assay [1], greater than 1000 nM in assay [2] and greater than 100000 nM in assay [3].
The matching figures for `COc1cc(-c2cc(-c3ccc(N4CCNCC4)cc3)cnc2N)cc(NS(C)(=O)=O)c1C` [CSLP21, N-(5-(2-Amino-5-(4-(piperazin-1-yl)phenyl)pyridin-3-yl)-3-methoxy-2-methylphenyl)methanesulfonamide]: greater than 1000 nM, greater than 1000 nM and greater than 100 nM.
The matching figures for `CCCS(=O)(=O)Nc1cc(-c2cc(-c3ccc(N4CCNCC4)cc3)cnc2C)cc(F)c1OC` [CSLP53, N-(3-Fluoro-2-methoxy-5-(2-methyl-5-(4-(piperazin-1-yl)phenyl)pyridin-3-yl)phenyl)propane-1-sulfonamide]: greater than 1000 nM, greater than 1000 nM and greater than 100000 nM.
On to `CCS(=O)(=O)Nc1cc(OC)cc(-c2cc(-c3ccc(N4CCNCC4)cc3)cnc2Cl)c1` [CSLP14], for which the IC50 in assay [1] was greater than 100 nM; in assay [2] it was greater than 1000 nM; in assay [3], greater than 10 nM. In addition, the inhibition at 0.5 µM in assay [1] amounted to 86%.
For the compound `COc1cc(NS(C)(=O)=O)cc(-c2cc(-c3ccc(N4CCNCC4)cc3)cnc2N)c1` [CSLP3], the figures for the IC50 in assay [1], in assay [2] and in assay [3] were greater than 10 nM, greater than 100 nM and greater than 1 nM, respectively.
With `CCCS(=O)(=O)Nc1cc(-c2cc(-c3ccc(N4CCNCC4)cc3)cnc2N)cc(OCC)c1OC` [CSLP56], the IC50 in assay [1] was greater than 1000 nM; in assay [2] it was greater than 1000 nM; in assay [3] it was greater than 100000 nM.
Regarding `CCOc1cc(-c2cc(-c3ccc(N4CCNCC4)cc3)cnc2N)cc(NS(=O)(=O)Cc2ccccc2)c1C` [CSLP54, N-(5-(2-Amino-5-(4-(piperazin-1-yl)phenyl)pyridin-3-yl)-3-ethoxy-2-methylphenyl)-1-phenylmethanesulfonamide], the IC50 in assay [1], in assay [2] and in assay [3] was greater than 1000 nM in each case.
For `CCCS(=O)(=O)Nc1cc(-c2cc(-c3cccc(S(C)(=O)=O)c3)cnc2N)ccc1OC` [CSLP30], the IC50 in assay [1] was greater than 100 nM; in assay [2], greater than 1000 nM; in assay [3], greater than 10000 nM.
The matching figures for `COc1cc(NS(=O)(=O)Cc2ccccc2)cc(-c2cc(-c3ccc(N4CCNCC4)cc3)cnc2N)c1` [CSLP24, N-(3-(2-Amino-5-(4-(piperazin-1-yl)phenyl)pyridin-3-yl)-5-methoxyphenyl)-1-phenylmethanesulfonamide]: greater than 100 nM, greater than 100 nM and greater than 1 nM.
Take `CCOc1cc(NS(=O)(=O)C(C)C)cc(-c2cc(-c3ccc(N4CCNCC4)cc3)cnc2N)c1` [CSLP22, N-(3-(2-Amino-5-(4-(piperazin-1-yl)phenyl)pyridin-3-yl)-5-ethoxyphenyl)propane-2-sulfonamide]: the IC50 in assay [1] is greater than 10 nM; in assay [2], greater than 10 nM; in assay [3], greater than 100 nM.
For the compound `CCCS(=O)(=O)Nc1cc(-c2cc(-c3ccc(N4CCNCC4)cc3)cnc2N)ccc1O` [CSLP48, N-(5-(2-Amino-5-(4-(piperazin-1-yl)phenyl)pyridin-3-yl)-2-hydroxyphenyl)propane-1-sulfonamide], the IC50 is greater than 10 nM in assay [1], greater than 1000 nM in assay [2] and greater than 100 nM in assay [3].
For `COc1cc(NS(=O)(=O)c2ccccc2)cc(-c2cc(-c3ccc(N4CCNCC4)cc3)cnc2N)c1` [CSLP20, N-(3-(2-Amino-5-(4-(piperazin-1-yl)phenyl)pyridin-3-yl)-5-methoxyphenyl)benzenesulfonamide], the IC50 in assay [1] was greater than 1 nM; in assay [2], greater than 10 nM; in assay [3], greater than 1 nM.
Consider `CCCS(=O)(=O)Nc1cc(-c2cc(-c3cccc(N4CCNCC4)c3)cnc2N)cc(F)c1OC` [CSLP58, N-(5-(2-Amino-5-(3-(piperazin-1-yl)phenyl)pyridin-3-yl)-3-fluoro-2-methoxyphenyl)propane-1-sulfonamide], for which the IC50 is greater than 10 nM in assay [1], greater than 10 nM in assay [2] and greater than 100 nM in assay [3].
As to `CCCS(=O)(=O)N1CCOc2ccc(-c3cc(-c4ccc(N5CCNCC5)cc4)cnc3N)cc21` [CSLP47, 5-(4-(Piperazin-1-yl)phenyl)-3-(4-(propylsulfonyl)-3,4-dihydro-2H-benzo[b][1,4]oxazin-6-yl)pyridin-2-amine], the IC50 in assay [1] was greater than 10 nM; in assay [2], greater than 1000 nM; in assay [3], greater than 100000 nM.
The corresponding values for `CCCS(=O)(=O)Nc1cc(-c2cc(-c3ccc(N4CCNCC4)cc3)cnc2N)cc(Cl)c1OC` [CSLP35] are greater than 10 nM, greater than 10 nM and greater than 100 nM.
With `COc1cc(NS(=O)(=O)CC(C)C)cc(-c2cc(-c3ccc(N4CCNCC4)cc3)cnc2C)c1` [CSLP17, N-(3-Methoxy-5-(2-methyl-5-(4-(piperazin-1-yl)phenyl)pyridin-3-yl)phenyl)-2-methylpropane-1-sulfonamide], the IC50 in assay [1] is greater than 10 nM; in assay [2], greater than 1000 nM; in assay [3], greater than 10 nM. In addition, the inhibition at 0.5 µM in assay [1] amounted to 86%.
Take `COc1cc(NS(=O)(=O)C2CC2)cc(-c2cc(-c3ccc(N4CCNCC4)cc3)cnc2C)c1` [CSLP9, N-(3-Methoxy-5-(2-methyl-5-(4-(piperazin-1-yl)phenyl)pyridin-3-yl)phenyl)cyclopropanesulfonamide]: the inhibition at 0.5 µM in assay [1] came to 76%. Besides, in assay [2], the IC50 was greater than 1000 nM.
As to `COc1cc(NS(C)(=O)=O)cc(-c2cc(-c3ccc(N4CCNCC4)cc3)cnc2C)c1` [CSLP2, N-(3-Methoxy-5-(2-methyl-5-(4-(piperazin-1-yl)phenyl)pyridin-3-yl)phenyl)methanesulfonamide], the IC50 was greater than 100 nM in assay [1], greater than 1000 nM in assay [2] and greater than 10 nM in assay [3]. For the same compound, the inhibition at 0.25 µM in assay [1] (Conc. 250 nM) stood at 39%.
`CCS(=O)(=O)Nc1cc(OC)cc(-c2cc(-c3ccc(N4CCNCC4)cc3)cnc2N)c1` [CSLP7]: the 50% inhibitory concentration (IC50) in assay [1] was greater than 10 nM; in assay [2], greater than 100 nM.
On to `COc1cc(NS(=O)(=O)C2CC2)cc(-c2cc(-c3ccc(N4CCNCC4)cc3)cnc2N)c1` [CSLP11, N-(3-(2-Amino-5-(4-(piperazin-1-yl)phenyl)pyridin-3-yl)-5-methoxyphenyl)cyclopropanesulfonamide], for which the IC50 was greater than 10 nM in assay [1] and greater than 100 nM in assay [2].
As to `CCCS(=O)(=O)Nc1cc(-c2cc(-c3ccc(N4CCNCC4)cc3)cnc2N)ccc1C` [CSLP26, N-(5-(2-Amino-5-(4-(piperazin-1-yl)phenyl)pyridin-3-yl)-2-methylphenyl)propane-1-sulfonamide], the IC50 in assay [1] is greater than 100 nM; in assay [2] it was greater than 1000 nM; in assay [3], greater than 1000 nM.
